In patent US6225307A, “Viral treatment” (priority 2000, dated 2001):

Tests used:
HIV-1 protease = biological target: T1, HIV-1 protease (Human immunodeficiency virus type 1 group M subtype B, UniProt P04585); assay: Protease inhibition assay (fluorometric method); type: biochemical
T1 construct: fluorometric HIV-1 protease assay; purchased Bachem
Protocol: Protease inhibition is evaluated using a fluorometric method. Enzyme (Bachem) is diluted to 116 μgm/ml in 50 mM NaOAC, 5 mM DTT, 2 mM EDTA, 10% glycerol (pH 5.0) and stored as 10 μl samples at -20° C., HIV protease substrates I (Molecular Probes) is diluted to a working concentration of 0.32 nmoles/μl. Enzyme (20 μl) and drug (20 μl) are added to each well of a microtiter plate as appropriate. Positive and negative control are evaluated in parallel. Fluorescence is quantitated on Labsystems Fluroskan II using 355 nm/460nm at 37° C. at time zero and at 30 minute intervals for 2 hours. In instances where autofluorescence precludes use of the fluorometric HIV-1 protease assay or confirmation of a result is required, an HPLC based protease assay can be employed.

HIV-1 cell line, CEMRF = assay: Long term in vitro study, CEMRF cells, reverse transcriptase analysis; type: cell-based; parameters: Reverse transcriptase data: unit not given here
Protocol: A microtiter-based reveres transcriptase (RT) reaction is utilized (Buckheit et al (1991) AIDS Research and Human Retroviruses 7:295-302). Tritiated thymidine triphosphate (NEN)(TTP) is resuspended in distilled water at 5 Ci/ml. Poly rA and oligo dT are prepared as a stock solution which is kept at -20° C. The RT reaction buffer is prepared fresh on a daily basis and consists of 125 μl 1M EGTA, 125 μl water, 125 μl Triton X-100, 50 μl Tris (pH 7.4), 50 μl MDDT, and 40 μl 1M MgCl2. These three solutions are mixed together in a ratio of 1 part TTP, 2.5 parts poly rA:oligo dT, 2.5 parts reaction buffer and 4 parts distilled water. Ten microliters of this reaction mixture is placed in a round bottom microtiter place and 15 μl of virus containing supernatant is added and mixed. The plate is incubated at 37° C. and incubated for 60 minutes. Following reaction, the reaction volume is spotted onto filter mats, washed 6 times for 5 minutes each in a 5% sodium phosphate buffer, 2 times for 1 minute each in distilled water, 2 times for 1 minute each in 70% ethanol, and then dried. The dried filter mat is placed in a plastic sample bag, Betaplate scintillation fluid is added and the bag is heat sealed. Incorporated radioactivity is quantified utilizing a Wallac Microbeta scintillation counter.
Acute infection of most established human cell lines with HIV- I results in the eventual establishment of a constitutive virus-producing chronically infected cell line. The cells can be passaged for long periods of time in culture without loss of virus production. These cells may be utilized to evaluate the effects of anti-HIV compounds on syncytium formation or to evaluate the effects of anti-HIV compounds on levels of virus production from these cells. […] Each of the cells contains an integrated HIV genome or provirus. Chronically infected CEM, H9 and U937 cell lines have been prepared and cultured by Southern Research Institute, Frederick Md. and are available from them.
CEM-SS cells chronically infected with HIV isolate, for example SKI (CEM-SKI) are cultured in RPM1640 tissue culture medium supplemented with 10% fetal bovine serum and antibiotics. Selection is performed by culturing the cells in the presence of the compound to be tested in T25 flasks. CEM-SKI or other infected cells with no added drug are used as the control cells. Cells are allowed to grow to a density of approximately 1×10^6 cells/ml and are then passaged at a 1:10 dilution. After a period of time, usually one week intervals of drug treatment, cells are evaluated to determine if the inhibitory activity of the compound has been affected by treatment of the cells with either compounds. The drug concentration in the flask is then increased two-fold and the cells maintained as above.
The cell populations contain integrated copies of the HIV genome and constitutively produce HIV at relatively high levels or are latently infected and only produce virus after stimulation with phorbol esters, tumor necrosis factor or IL6(U1 and ACH2). Reductions in virus products were observed when quantifying supernatant reverse transcriptase activity,
Toxicity Values are measured by XTT and activity of the compound in the tests is measured by a Reverse Transcriptase analysis.
A long term in vitro study of 3-hexahydro-3-ethyl-1-methyl-2-oxo-1H-azepin-3-yl)phenyl ester of 4-chlorophenyl carbamic acid against an HIV-1 cell line, CEMRF, was conducted at three different levels. The results with CEMRF cells were reported at weekly intervals. CEMRF is a chronic HIV cell line.

Structure (SMILES): CCC1(c2cccc(OC(=O)Nc3ccc(Cl)cc3)c2)CCCCN(C)C1=O (stereo not shown) [(4-chlorophenyl)-carbamic acid, 3-(hexahydro-3-ethyl-1-methyl-2-oxo-1H-azepin-3-yl) 2 phenyl ester]
- EC50 (HIV-1 protease): > 249 µM
- Protease inhibition, mean (HIV-1 protease; 0.1 nM): 27.9 fluorometric units
- Protease inhibition, sample 1 (HIV-1 protease; 0.1 nM): 24.7 fluorometric units
- Protease inhibition, sample 2 (HIV-1 protease; 0.1 nM): 31.2 fluorometric units
- remaining activity at 0.0001 µM (HIV-1 protease; 0.1 nM, read-out: % ND control): 98.2%
- Protease inhibition, mean (HIV-1 protease; 1 nM): 27.4 fluorometric units
- Protease inhibition, sample 1 (HIV-1 protease; 1 nM): 27.4 fluorometric units
- Protease inhibition, sample 2 (HIV-1 protease; 1 nM): 27.5 fluorometric units
- remaining activity at 0.001 µM (HIV-1 protease; 1 nM, read-out: % ND control): 96.4%
- Protease inhibition, mean (HIV-1 protease; 10 nM): 26.8 fluorometric units
- Protease inhibition, sample 1 (HIV-1 protease; 10 nM): 28.5 fluorometric units
- Protease inhibition, sample 2 (HIV-1 protease; 10 nM): 25.1 fluorometric units
- remaining activity at 0.01 µM (HIV-1 protease; 10 nM, read-out: % ND control): 94.2%
- Protease inhibition, mean (HIV-1 protease; 100 nM): 30.0 fluorometric units
- Protease inhibition, sample 1 (HIV-1 protease; 100 nM): 29.3 fluorometric units
- Protease inhibition, sample 2 (HIV-1 protease; 100 nM): 30.7 fluorometric units
- remaining activity at 0.1 µM (HIV-1 protease; 100 nM, read-out: % ND control): 105%
- activity as a protease inhibitor (HIV-1 protease; screened using a fluorometric method): did not show activity
- Reverse transcriptase data (HIV-1 cell line, CEMRF; 7 μg/ml, Day 4): 1942
- Reverse transcriptase data (HIV-1 cell line, CEMRF; 7 μg/ml, Day 11): 1537
- Reverse transcriptase data (HIV-1 cell line, CEMRF; 7 μg/ml, Day 18): 1683
- Reverse transcriptase data (HIV-1 cell line, CEMRF; 7 μg/ml, Day 25): 1624
- Reverse transcriptase data (HIV-1 cell line, CEMRF; 7 μg/ml, Day 32): 1286
- Reverse transcriptase data (HIV-1 cell line, CEMRF; 7 μg/ml, Day 39): 1368
- Reverse transcriptase data (HIV-1 cell line, CEMRF; 7 μg/ml, Day 46): 1588
- Reverse transcriptase data (HIV-1 cell line, CEMRF; 7 μg/ml, Day 53): 1482
- Reverse transcriptase data (HIV-1 cell line, CEMRF; 7 μg/ml, Day 60): 1381
- Reverse transcriptase data (HIV-1 cell line, CEMRF; 7 μg/ml, Day 67): 1231
- Reverse transcriptase data (HIV-1 cell line, CEMRF; 7 μg/ml, Day 71): 1321
- Reverse transcriptase data (HIV-1 cell line, CEMRF; 7 μg/ml, Day 74): 1528
- Reverse transcriptase data (HIV-1 cell line, CEMRF; 7 μg/ml, Day 88): 1454
- Reverse transcriptase data (HIV-1 cell line, CEMRF; 7 μg/ml, Day 95): 1168
- Reverse transcriptase data (HIV-1 cell line, CEMRF; 7 μg/ml, Day 102): 1463
- Reverse transcriptase data (HIV-1 cell line, CEMRF; 7 μg/ml, Day 109): 1440
- Reverse transcriptase data (HIV-1 cell line, CEMRF; 15 μg/ml, Day 4): 1402
- Reverse transcriptase data (HIV-1 cell line, CEMRF; 15 μg/ml, Day 11): 1402
- Reverse transcriptase data (HIV-1 cell line, CEMRF; 15 μg/ml, Day 18): 1281
- Reverse transcriptase data (HIV-1 cell line, CEMRF; 15 μg/ml, Day 25): 1582
- Reverse transcriptase data (HIV-1 cell line, CEMRF; 15 μg/ml, Day 32): 1140
- Reverse transcriptase data (HIV-1 cell line, CEMRF; 15 μg/ml, Day 39): 1028
- Reverse transcriptase data (HIV-1 cell line, CEMRF; 15 μg/ml, Day 46): 1056
- Reverse transcriptase data (HIV-1 cell line, CEMRF; 15 μg/ml, Day 53): 1160
- Reverse transcriptase data (HIV-1 cell line, CEMRF; 15 μg/ml, Day 60): 1056
- Reverse transcriptase data (HIV-1 cell line, CEMRF; 15 μg/ml, Day 67): 1002
- Reverse transcriptase data (HIV-1 cell line, CEMRF; 15 μg/ml, Day 71): 1108
- Reverse transcriptase data (HIV-1 cell line, CEMRF; 15 μg/ml, Day 74): 1201
- Reverse transcriptase data (HIV-1 cell line, CEMRF; 15 μg/ml, Day 88): 1068
- Reverse transcriptase data (HIV-1 cell line, CEMRF; 15 μg/ml, Day 95): 1004
- Reverse transcriptase data (HIV-1 cell line, CEMRF; 15 μg/ml, Day 102): 1165
- Reverse transcriptase data (HIV-1 cell line, CEMRF; 15 μg/ml, Day 109): 1265
- Reverse transcriptase data (HIV-1 cell line, CEMRF; 30 μg/ml, Day 4): 650
- Reverse transcriptase data (HIV-1 cell line, CEMRF; 30 μg/ml, Day 11): 463
- Reverse transcriptase data (HIV-1 cell line, CEMRF; 30 μg/ml, Day 18): 221
- Reverse transcriptase data (HIV-1 cell line, CEMRF; 30 μg/ml, Day 25): 643
- Reverse transcriptase data (HIV-1 cell line, CEMRF; 30 μg/ml, Day 32): 462
- Reverse transcriptase data (HIV-1 cell line, CEMRF; 30 μg/ml, Day 39): 221
- Reverse transcriptase data (HIV-1 cell line, CEMRF; 30 μg/ml, Day 46): 149
- Reverse transcriptase data (HIV-1 cell line, CEMRF; 30 μg/ml, Day 53): 281
- Reverse transcriptase data (HIV-1 cell line, CEMRF; 30 μg/ml, Day 60): 248
- Reverse transcriptase data (HIV-1 cell line, CEMRF; 30 μg/ml, Day 67): 147
- Reverse transcriptase data (HIV-1 cell line, CEMRF; 30 μg/ml, Day 71): 201
- Reverse transcriptase data (HIV-1 cell line, CEMRF; 30 μg/ml, Day 74): 161
- Reverse transcriptase data (HIV-1 cell line, CEMRF; 30 μg/ml, Day 88): 249
- Reverse transcriptase data (HIV-1 cell line, CEMRF; 30 μg/ml, Day 95): 176
- Reverse transcriptase data (HIV-1 cell line, CEMRF; 30 μg/ml, Day 102): 197
- Reverse transcriptase data (HIV-1 cell line, CEMRF; 30 μg/ml, Day 109): 370
- Reverse transcriptase data, continued test (HIV-1 cell line, CEMRF; run through 222 days): data remained consistent
